# Earlier results in paper PMC6504684 (Frontiers in Pharmacology, 2019).
# Assays:
# [1] = test system: rat α9α10 nAChR; details: cited from earlier work
# [2] = test system: α9α10 nAChR; details: cited from earlier work
# [3] = test system: models of pain and inflammation; details: in vivo; cited from earlier work
# [4] = test system: GABAβ receptors; details: cited from earlier work
substance,measurement,setting,value
Vc1.1,IC50,[1],19 nM
same,"selectivity for the α9α10 nAChR, in words",[2],α9α10 selective
same,"analgesic and anti-inflammatory effects, in words",[3],analgesic and anti-inflammatory effects
same,"effects via GABAβ receptors, in words",[4],can also be transmitted via inhibition of GABAβ receptors
